Columns and labels:
Format in all cases: physicochemical
[1] = Moisture balance / relative humidity exposure of efaproxiral sodium solid forms; conditions: for solid form after relative humidity is decreased to 5%: RH lowered to about 5% RH, sodium salt
Description: Approximately 100 mg of efaproxiral sodium Form A was placed in a 20 mL glass vial. The vial was placed, uncapped, in an ambient temperature relative humidity jar at 75% relative humidity for approximately 24 hours.
A quantity of Form A was placed on a weigh pan at about 0% relative humidity (RH). The RH was slowly raised to about 95% (adsorption) and was then lowered back to about 5% RH (desorption). The weight of the solid material was measured throughout. The results are depicted in FIG. 10. […] The resulting Form I loses slightly less than 4 moles of water as the humidity is further lowered to about 5% RH.

[2] = Solid form remaining after heating or drying (XRPD)
Description: XRPD analyses were carried out on a Shimadzu XRD-6000 X-ray powder diffractometer using Cu Kα radiation. The instrument is equipped with a long fine focus X-ray tube. The tube voltage and amperage were set at […] and 40 mA, respectively. The divergence and scattering slits were set at 1° and the receiving slit was set at 0.15 mm. Diffracted radiation was detected by a […] scintillation detector. A theta-two theta continuous scan at 3′/min (0.4 sec/0.02° step) from 2.5 to 40 °2θ was used. A silicon standard was analyzed each day to check the instrument alignment. Samples were analyzed with an aluminum/silicon sample holder.
Efaproxiral sodium Form A (1125.7 mg) was dissolved completely in […] of ethanol at 48° C. Acetone (7600 μL) was slowly added over a one minute period. Form G and Form Q formed in the reactor at this time. After 1 minute 50 seconds, a further 6250 μL of acetone was added and the reactor was allowed to cool to approximately 25° C. and then to approximately 15° C. The solid material in the reactor during this interval was Form Q. After approximately 10 minutes had passed from the initial addition of acetone, the resulting powdery white solid was collected by vacuum filtration, washed with 6000 μL acetone and dried in a 52° C. vacuum oven.

[3] = Thermogravimetric analysis (TGA) of solvated forms, ambient to 165° C.; conditions: for TGA weight loss: temperature raised from ambient to 165° C., sodium salt
Description: A screen for polymorphs and solvates of efaproxiral sodium was performed using a variety of crystallization techniques. The resulting polymorphs were analyzed using a number of analytical techniques well known in the art for their ability to differentiate between different polymorphs, including thermogravimetric analysis (TGA), reflectance Fourier transform infrared (FTIR) spectroscopy (see EXAMPLE 2), and X-ray powder diffraction (XRPD) (see EXAMPLE 3). TGA is often very useful for distinguishing between different solid forms of a material because the temperature(s) at which a physical change in a material occurs is usually characteristic of the polymorph or solvate. X-Ray Powder Diffraction (XRPD) is a technique that detects long-range and short-range order in a crystalline material. IR spectroscopy also detects both intramolecular and intermolecular bonding in solids, and further provides information regarding the chemical composition of the crystalline material.

[4] = Form A exposed to approximately 95% humidity

Cc1cc(C)cc(NC(=O)Cc2ccc(OC(C)(C)C(=O)[O-])cc2)c1.[Na+] [Form A, 2-[4-[2-[(3,5-dimethylphenyl)amino]-2-oxoethyl]phenoxy]-2-methyl-propionic acid, sodium salt]
water uptake equivalent to weight gain [1, 4]: approximately 7 moles of water/mole efaproxiral sodium
weight gain [1, 4]: approximately 34%
water uptake equivalent to weight gain ([1]; Form A incubated at high relative humidity): about 4 moles of water/mole efaproxiral sodium
weight gain ([1]; Form A incubated at high relative humidity (75% RH, ambient temperature, approximately 24 hours)): approximately 20%
water gained (adsorption) ([1]; RH raised from about 0% to about 85% RH, converts to Form I): about 4 moles of water/mole efaproxiral sodium
solid form after incubation at high relative humidity ([1]; high relative humidity): Form I
further water gained (adsorption) ([1]; humidity raised further to about 95% RH, converts to Form J): about 3 moles of water/mole efaproxiral sodium

Cc1cc(C)cc(NC(=O)Cc2ccc(OC(C)(C)C(=O)[O-])cc2)c1.[Na+] [Form F, 2-[4-[2-[(3,5-dimethylphenyl)amino]-2-oxoethyl]phenoxy]-2-methyl-propionic acid, sodium salt]
removal of lattice solvent (methanol) by heating ([2]; 80° C. for approximately 3 hours): can be removed

Cc1cc(C)cc(NC(=O)Cc2ccc(OC(C)(C)C(=O)[O-])cc2)c1.[Na+] [Form I, 2-[4-[2-[(3,5-dimethylphenyl)amino]-2-oxoethyl]phenoxy]-2-methyl-propionic acid, sodium salt]
solid form after relative humidity is decreased to 5% [1]: amorphous efaproxiral sodium
water lost (desorption) ([1]; humidity further lowered to about 5% RH): less than 4 moles of water

Cc1cc(C)cc(NC(=O)Cc2ccc(OC(C)(C)C(=O)[O-])cc2)c1.[Na+] [Form J, 2-[4-[2-[(3,5-dimethylphenyl)amino]-2-oxoethyl]phenoxy]-2-methyl-propionic acid, sodium salt]
solid form after relative humidity is decreased to 5% [1]: Amorphous material
water lost (desorption) ([1]; humidity lowered from about 95% to about 20% RH, converts to Form I): about 3 moles of water/mole efaproxiral sodium

Cc1cc(C)cc(NC(=O)Cc2ccc(OC(C)(C)C(=O)[O-])cc2)c1.[Na+] [Form P, 2-[4-[2-[(3,5-dimethylphenyl)amino]-2-oxoethyl]phenoxy]-2-methyl-propionic acid, sodium salt]
solvent loss equivalent to TGA weight loss ([3]; ambient to 165° C.): about 1 mole of ethanol per mole of efaproxiral sodium
TGA weight loss [3]: approximately 10.6%
solid form remaining after heating (XRPD) ([2]; heated to 156° C.): Form A

Cc1cc(C)cc(NC(=O)Cc2ccc(OC(C)(C)C(=O)[O-])cc2)c1.[Na+] [Form Q, 2-[4-[2-[(3,5-dimethylphenyl)amino]-2-oxoethyl]phenoxy]-2-methyl-propionic acid, sodium salt]
solvent loss equivalent to TGA weight loss ([3]; ambient to about 165° C.): ½ to about ⅓
TGA weight loss [3]: approximately 5.7%
solid form after drying ([2]; 52° C. vacuum oven, 14 hours of drying): Form Q
solid form after drying ([2]; 52° C. vacuum oven, 32 hours of drying): Form Q
solid form after drying ([2]; dried at 70° C. under vacuum): Form B
solid form remaining after heating (XRPD) ([2]; heated to about 165° C.): Form A
